Legend:
Type in all cases: in vivo, nude mice (nu/nu)
[1] = test system: human lung cancer cells (NCI-H23); test: Transplantation model of human lung cancer (NCI-H23) in nude mice; conditions: NCI-H23 subcutaneous in nude mice; oral daily 5 days/week, 3 weeks; ZTP 30 mg/kg, ZTQ 60 mg/kg; lower = stronger
Experimental: (§1) T-cell deficient nude mice (nu/nu) of 6 weeks old were purchased from Charles River Laboratory, and housed and treated in a sterile environment following Institutional Animal Care & Use Committee Program. 48 mice were respectively subcutaneously inoculated on ribbed belly with 5×10^6 human liver cancer cells (HepG3B), human lung caner cells (NCI-H23), and human colon cancer cells (HCT-116) suspended in 0.2 ml HBSS/matrigel (50:50, V/V). When the tumor grew to have an average diameter of 7-8 mm and a volume of about 100-200 mm^3, 24 mice were picked up, and assigned to treatment groups (16 animals/2 groups), and a control group (8 animals). The 2 treatment groups were administered with the compounds ZTP and ZTQ dissolved in 15% Captsol respectively at a dose of 30 mg/kg and 60 mg/kg, and the control group only received an excipient (15% Captsol).
(§2) The same number of mice of each type was assigned to the control group and the treatment groups with the compounds ZTP and ZTQ respectively.
(§3) The dose schedule of the test compounds in the tumor transplanted nude mice was as follows: the compounds ZTP and ZTQ dissolved in 15% Captsol were daily orally administered as a 200 μl solution containing 0.75 mg of ZTP and 1.5 mg of ZTQ for 5 days/week over 3 consecutive weeks, followed by one-week break; and the control group was only administered with 200 μl of the placebo (15% Captsol) for 3 weeks, followed by 1 week of break. The two groups of animals were housed separately, and allowed to free access to food.
(§4) Evaluation of antitumor effect: the tumor size was measured every 3 or 4 days. The tumor volume was calculated using the equation below: […], in which a denotes the width (the shorter diameter), and b denotes the length (the longer diameter). Relative tumor volume (RTV) of each tumor refers to the ratio of the volume at a specified time to that at the beginning of the treatment. The average RTV for each treatment group was calculated. The antitumor activity was determined by calculating the tumor growth inhibition using a formula below. […]

[2] = test system: human liver cancer cells (HepG3B); test: Transplantation model of human liver cancer (HepG3B) in nude mice; conditions: HepG3B subcutaneous in nude mice; oral daily 5 days/week, 3 weeks; ZTP 30 mg/kg, ZTQ 60 mg/kg; lower = stronger
Experimental: as §1, §2, §3, §4

[3] = Side effects in tumor transplanted nude mice; conditions: during treatment
Experimental: as §1, §3

[4] = test system: human colon cancer cells (HCT-116); test: Transplantation model of human colon cancer (HCT-116) in nude mice; conditions: HCT-116 subcutaneous in nude mice; oral daily 5 days/week, 3 weeks; ZTP 30 mg/kg, ZTQ 60 mg/kg; lower = stronger
Experimental: as §1, §2, §3, §4

| Molecule | TGI (T/C×100) [1] [%] | TGI (T/C×100) [2] [%] | side effect, including the change in body weight [3] | TGI (T/C×100) [4] [%] |
| --- | --- | --- | --- | --- |
| CNC(=O)c1cc(Oc2ccc(NC(=O)Nc3ccc(Cl)c(C(F)(F)F)c3)cc2)ccn1 [Sorafenib, reference compound] | 11.25 | 14 | relatively large side effect | 33 |
| N-[4-chloro-3-(trifluoromethyl)phenyl]-[4-(N-methyl-formamide)(4-pyridyloxy)phenyl]-thiourea [ZTP] | – | – | no obvious side effect | – |
